# Test results published in patent US12643871B2, “Aryl formamide compound containing chiral sulfur oxide or salt thereof, preparation method, herbicidal composition and use thereof” (Qingdao Kingagroot Chemical Compound Co., Ltd., priority 2019, dated 2026).
# Legend:
# Type in all cases: in vivo
# [1] = test system: Green Setaria viridis; test: Comparison experiment (post-emergence) against racemate / S configuration; conditions: for Results of comparison experiment, Green Setaria viridis (60 g/ha): 25DAA
# Description: (§1) The above growth control rates are fresh weight control rates.
# (§2) Experiment on weeding effect in post-emergence stage: monocotyledonous and dicotyledonous weed seeds (Descurainia sophia, Capsella bursa-pastoris, Galium aparine, Stellaria media, Lithospermum arvense, Rorippa indica, Alopecurus aequalis, Beckmannia syzigachne, Sclerochloa dura, Phleum paniculatum, Bromus japonicus, Aegilops tauschii, Phalaris arundinacea, Amaranthus retroflexus, Chenopodiaceae, Commelina communis, Sonchus arvensis, convolvulus arvensis, Cirsium setosum, Solanum nigrum, Acalypha australis, Digitaria sanguinalis, Echinochloa crusgalli, Setaria viridis, Setaria glauca, Leptochloa chinensis, Monochoria vaginalis, Sagittaria trifolia, Scirpus juncoides, Cyperus rotundus, Cyperus iria, Cyperus difformis, Fimbristylis, Portulaca oleracea, Xanthium sibiricum, Pharbitis nil) and major crop seeds (wheat, corn, rice, soybean, cotton, oilseed rape, millet, sorghum, potato, sesame, ricinus) were placed in plastic pots filled with soil, then covered with 0.5-2 cm of soil, allowed to grow in a good greenhouse environment. […] The tested compounds of the present invention were respectively dissolved in acetone, then added with Tween 80 and 1.5 liter/ha of emulsifiable concentrate of methyl oleate as synergist, diluted with a certain amount of water to obtain a solution with a certain concentration, and sprayed with a spray tower onto the plants. […]
# (§3) If there is no clear marker, the post-seedling test conditions are the same as above, and the experimental results are shown in Tables 4-7.
# [2] = test system: Leptochloa chinensis; test: as above; conditions: for Results of comparison experiment, Leptochloa chinensis (60 g/ha) / Results of comparison experiment, Leptochloa chinensis (125 g/ha): 3-4 weeks after sowing, 4-5 leaf-stage of weed; for Results of comparison experiment, Leptochloa chinensis (60 g/ha): 25DAA; for Results of comparison experiment, Leptochloa chinensis (125 g/ha): 25 DAA (Table 5)
# Description: as §1, §2, §3
# [3] = test system: Abutilon theophrasti; test: as above; conditions: 30 g/ha; 3-4 weeks after sowing, 4-5 leaf-stage of weed, 25DAA
# Description: as §1, §2, §3
# [4] = test system: Digitaria sanguinalis; test: as above; conditions: 30 g/ha, 3-4 weeks after sowing, 4-5 leaf-stage of weed, 25DAA; for pest or weed control at 30 g/ha: Digitaria sanguinalis, post-emergence, 600 h
# [5] = test system: Alopecurus japonicas; test: as above; conditions: Table 6, post-seedling test conditions
# Description: as §1
# (§4) Experiment on weeding effect in post-emergence stage: monocotyledonous and dicotyledonous weed seeds (Descurainia sophia, Capsella bursa-pastoris, Galium aparine, Stellaria media, Lithospermum arvense, Rorippa indica, Alopecurus aequalis, Beckmannia syzigachne, Sclerochloa dura, Phleum paniculatum, Bromus japonicus, Aegilops tauschii, Phalaris arundinacea, Amaranthus retroflexus, Chenopodiaceae, Commelina communis, Sonchus arvensis, convolvulus arvensis, Cirsium setosum, Solanum nigrum, Acalypha australis, Digitaria sanguinalis, Echinochloa crusgalli, Setaria viridis, Setaria glauca, Leptochloa chinensis, Monochoria vaginalis, Sagittaria trifolia, Scirpus juncoides, Cyperus rotundus, Cyperus iria, Cyperus difformis, Fimbristylis, Portulaca oleracea, Xanthium sibiricum, Pharbitis nil) and major crop seeds (wheat, corn, rice, soybean, cotton, oilseed rape, millet, sorghum, potato, sesame, ricinus) were placed in plastic pots filled with soil, then covered with 0.5-2 cm of soil, allowed to grow in a good greenhouse environment. After 2 weeks of sowing, the test plants were treated in the 2 leaf stage. The tested compounds of the present invention were respectively dissolved in acetone, then added with Tween 80 and 1.5 liter/ha of emulsifiable concentrate of methyl oleate as synergist, diluted with a certain amount of water to obtain a solution with a certain concentration, and sprayed with a spray tower onto the plants. After the application, the plants were cultured for 15 days in the greenhouse, and then the experimental results of the weeding were counted. The doses of the used compounds were 500, 250, 125, 60, 30, 15 g/ha, and the averages were obtained by repeating for three times.
# as §3
# [6] = test system: Digitaria sanguinalis; test: as above; conditions: Digitaria sanguinalis, post-emergence, Table 6, post-seedling test conditions
# Description: as §1, §4, §3
# [7] = test system: Echinochloa crusgali; test: Weeding effect in post-emergence stage; conditions: 250 g/ha; 2 leaf stage; 15 days after application; fresh weight control rate
# Method in brief: (§5)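 Post-emergence spray, 2-leaf stage; doses 500–15 g/ha; acetone + Tween 80 + methyl oleate EC (1.5 L/ha) as synergist. Greenhouse 15 d. Readout: fresh weight control rate graded levels 0–5 (5 = above 85%, 0 = below 5%); triplicate means.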
# [8] = test system: Amaranthus retroflexus; test: Weeding effect in post-emergence stage; conditions: 250 g/ha; 2 leaf stage; 15 days after application; fresh weight control rate
# Method in brief: as §5
# [9] = test system: Abutilon theophrasti; test: Weeding effect in post-emergence stage; conditions: 250 g/ha; 2 leaf stage; 15 days after application; fresh weight control rate
# Method in brief: as §5
# [10] = test system: Digitaria sanguinalis; test: Weeding effect in post-emergence stage; conditions: 250 g/ha; 2 leaf stage; 15 days after application; fresh weight control rate
# Method in brief: as §5
# [11] = test system: Setaria viridis; test: Weeding effect in post-emergence stage; conditions: 250 g/ha; 2 leaf stage; 15 days after application; fresh weight control rate
# Method in brief: as §5
# [12] = test system: key weeds such as Digitaria sanguinalis, Leptochloa chinensis; test: Comparison experiment (post-emergence, Tables 4-7), herbicidal activity on weeds not listed separately; conditions: dose of 125, 60, 30, 15 g/ha
# Method in brief: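 Weeds sown in soil-filled pots, covered with 0.5-2 cm soil and grown in greenhouse; sprayed at 2-leaf stage (2 weeks after sowing) with compound in acetone/Tween 80 plus 1.5 liter/ha methyl oleate concentrate. Doses 500–15 g/ha; fresh weight control rated after 15 days, mean of three repeats.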
# [13] = test system: rice and other crops; test: Comparison experiment (post-emergence, Tables 4-7), crop safety; conditions: dose of 125, 60, 30, 15 g/ha
# Description: as §1, §4, §3
# [14] = test system: Rice(Longyang 16); test: Comparison experiment (post-emergence), crop safety on direct seeding rice; conditions: for Results of comparison experiment, Rice(Longyang 16) (250 g/ha) / Results of comparison experiment, Rice(Longyang 16) (500 g/ha): 1.5-2 leaf-stage of direct seeding rice variety Longyang 16, 25 DAA
# Description: as §1, §4, §3
# Longyang 16 is an important cultivated variety representative of long-grain fragrant rice in northeast China. Long-grain fragrant rice is sensitive to herbicides and prone to drug damage, especially HPPD herbicides such as mesotrione and benzobicylon. […] It was not consistent with the well-known structure-activity relationship that aryloxyphenoxypropionic acid herbicides and phenoxypropionic acid herbicides in effective form have high activity to weeds and heavy damage to crops, and in ineffective form have almost no activity.
# [15] = 3-4 weeks after sowing, 4-5 leaf-stage of weed
# [16] = Table 6, post-seedling test conditions
# [17] = 3-4 weeks after sowing, 4-5 leaf-stage of weed, 25 DAA (Table 5)
smiles,measurement,setting,value
Cc1nnc(NC(=O)c2ccc(C(F)F)c([S+](C)[O-])c2F)o1 (stereo not drawn) [Control Compound E],"Results of comparison experiment, Green Setaria viridis (60 g/ha)",[1]; [15],25%
same,"Results of comparison experiment, Leptochloa chinensis (60 g/ha)",[2],10%
same,"Results of comparison experiment, Abutilon theophrasti (30 g/ha)",[3],60%
same,pest or weed control at 30 g/ha,[4],5%
CC[S+]([O-])c1c(C(F)(F)F)ccc(C(=O)Nc2nnc(C)o2)c1SC (stereo not drawn) [Control Compound B′],"Results of comparison experiment, Green Setaria viridis (30 g/ha)",[1]; [16],30%
same,"Results of comparison experiment, Alopecurus japonicas (120 g/ha)",[5],0%
same,pest or weed control at 30 g/ha,[6],30%
CCS(=O)(=O)c1c(C(F)(F)F)ccc(C(=O)Nc2nnc(C)o2)c1SC [Control Compound C′],"Results of comparison experiment, Green Setaria viridis (30 g/ha)",[1]; [16],80%
same,"Results of comparison experiment, Alopecurus japonicas (120 g/ha)",[5],20%
same,pest or weed control at 30 g/ha,[6],10%
CCC[S@@+]([O-])c1c(C(F)F)ccc(C(=O)Nc2nnc(C)o2)c1F [Compound 637],"Results of comparison experiment, Green Setaria viridis (60 g/ha)",[1]; [15],100%
same,"Results of comparison experiment, Leptochloa chinensis (60 g/ha)",[2],90%
same,"Results of comparison experiment, Abutilon theophrasti (30 g/ha)",[3],100%
same,"weeding effect in post-emergence stage, activity level (growth control rate), Echinochloa crusgali",[7],5 (Level 5: growth control rate is above 85%)
same,"weeding effect in post-emergence stage, activity level (growth control rate), Amaranthus retroflexus",[8],5 (Level 5: growth control rate is above 85%)
same,"weeding effect in post-emergence stage, activity level (growth control rate), Abutilon theophrasti",[9],5 (Level 5: growth control rate is above 85%)
same,"weeding effect in post-emergence stage, activity level (growth control rate), Digitaria sanguinalis",[10],5 (Level 5: growth control rate is above 85%)
same,"weeding effect in post-emergence stage, activity level (growth control rate), Setaria viridis",[11],5 (Level 5: growth control rate is above 85%)
same,"activity to key weeds such as Digitaria sanguinalis, Leptochloa chinensis compared with the corresponding racemate or S configuration",[12],better activity
same,pest or weed control at 30 g/ha,[4],100%
same,safety to rice and other crops compared with the corresponding racemate or S configuration,[13],higher safety
"Cc1nnc(NC(=O)c2ccc(C(F)(F)F)c([S+](C)[O-])c2F)o1 (single isomer, unassigned) [Control Compound C]","Results of comparison experiment, Green Setaria viridis (60 g/ha)",[1]; [15],20%
same,"Results of comparison experiment, Leptochloa chinensis (60 g/ha)",[2],0%
same,"Results of comparison experiment, Abutilon theophrasti (30 g/ha)",[3],60%
same,pest or weed control at 30 g/ha,[4],0%
"Cc1nnc(NC(=O)c2ccc(C(F)(F)F)c([S+](C)[O-])c2F)o1 (single isomer, unassigned) [Control Compound D]","Results of comparison experiment, Green Setaria viridis (60 g/ha)",[1]; [15],10%
same,"Results of comparison experiment, Leptochloa chinensis (60 g/ha)",[2],0%
same,"Results of comparison experiment, Abutilon theophrasti (30 g/ha)",[3],50%
same,"Results of comparison experiment, Digitaria sanguinalis (30 g/ha)",[4],0%
"CCC[S+]([O-])c1c(C(F)(F)F)ccc(C(=O)Nc2nnc(C)o2)c1F (single isomer, unassigned) [Control Compound B]","Results of comparison experiment, Green Setaria viridis (30 g/ha)",[1]; [17],10%
same,"Results of comparison experiment, Green Setaria viridis (60 g/ha)",[1]; [15],90%
same,"Results of comparison experiment, Leptochloa chinensis (60 g/ha)",[2],30%
same,"Results of comparison experiment, Leptochloa chinensis (125 g/ha)",[2],80%
same,"Results of comparison experiment, Abutilon theophrasti (30 g/ha)",[3],90%
same,"Results of comparison experiment, Rice(Longyang 16) (250 g/ha)",[14],5%
same,"Results of comparison experiment, Rice(Longyang 16) (500 g/ha)",[14],15%
same,"Results of comparison experiment, Digitaria sanguinalis (30 g/ha)",[4],80%
"CCC[S+]([O-])c1c(C(F)(F)F)ccc(C(=O)Nc2nnc(C)o2)c1F (single isomer, unassigned) [Control Compound A]","Results of comparison experiment, Green Setaria viridis (30 g/ha)",[1]; [17],0%
same,"Results of comparison experiment, Green Setaria viridis (60 g/ha)",[1]; [15],15%
same,"Results of comparison experiment, Leptochloa chinensis (60 g/ha)",[2],0%
same,"Results of comparison experiment, Leptochloa chinensis (125 g/ha)",[2],10%
same,"activity against key weeds such as Leptochloa chinensis, in words",[2]; summary of Table 5,lower activity
same,"Results of comparison experiment, Abutilon theophrasti (30 g/ha)",[3],0%
same,"Results of comparison experiment, Rice(Longyang 16) (250 g/ha)",[14],15%
same,"Results of comparison experiment, Rice(Longyang 16) (500 g/ha)",[14],25%
same,"safety to rice (Longyang 16), in words",[14]; summary of Table 5,not safe
same,"Results of comparison experiment, Digitaria sanguinalis (30 g/ha)",[4],0%
COC[S+]([O-])c1c(C(F)(F)F)ccc(C(=O)Nc2nnc(C)o2)c1F (stereo not drawn) [Compound 69],"weeding effect in post-emergence stage, activity level (growth control rate), Echinochloa crusgali",[7],5 (Level 5: growth control rate is above 85%)
same,"weeding effect in post-emergence stage, activity level (growth control rate), Amaranthus retroflexus",[8],5 (Level 5: growth control rate is above 85%)
same,"weeding effect in post-emergence stage, activity level (growth control rate), Abutilon theophrasti",[9],5 (Level 5: growth control rate is above 85%)
same,"weeding effect in post-emergence stage, activity level (growth control rate), Digitaria sanguinalis",[10],5 (Level 5: growth control rate is above 85%)
same,"weeding effect in post-emergence stage, activity level (growth control rate), Setaria viridis",[11],5 (Level 5: growth control rate is above 85%)
same,"activity to key weeds such as Digitaria sanguinalis, Leptochloa chinensis compared with the corresponding racemate or S configuration",[12],better activity
same,safety to rice and other crops compared with the corresponding racemate or S configuration,[13],higher safety
Cc1nnc(NC(=O)c2ccc(C(F)(F)F)c([S@@+](C)[O-])c2F)o1 [Compound 1],"Results of comparison experiment, Green Setaria viridis (60 g/ha)",[1]; [15],80%
same,"Results of comparison experiment, Leptochloa chinensis (60 g/ha)",[2],70%
same,"Results of comparison experiment, Abutilon theophrasti (30 g/ha)",[3],100%
same,"weeding effect in post-emergence stage, activity level (growth control rate), Echinochloa crusgali",[7],5 (Level 5: growth control rate is above 85%)
same,"weeding effect in post-emergence stage, activity level (growth control rate), Amaranthus retroflexus",[8],5 (Level 5: growth control rate is above 85%)
same,"weeding effect in post-emergence stage, activity level (growth control rate), Abutilon theophrasti",[9],5 (Level 5: growth control rate is above 85%)
same,"weeding effect in post-emergence stage, activity level (growth control rate), Digitaria sanguinalis",[10],3 (Level 3: growth control rate is greater than or equal to 40% and less than 60%)
same,"weeding effect in post-emergence stage, activity level (growth control rate), Setaria viridis",[11],3 (Level 3: growth control rate is greater than or equal to 40% and less than 60%)
same,"Results of comparison experiment, Digitaria sanguinalis (30 g/ha)",[4],90%
